The results in this text go back to patent US20020107269A1, “Benzoxazole LPAAT-B inhibitors and uses thereof” (CELL THERAPEUTICS, INC., priority 2000, published 2002).

This experiment addresses T1, LPAAT-β (Homo sapiens, UniProt O15120).
T1 construct: the full-length human LPAAT-β cDNA was amplified by PCR; poly-histidine tag (N); made in house; host or cells: Sf9 insect cells (baculovirus, pFastBac HTc); membrane fraction used
T1 sequence (O15120 24-278): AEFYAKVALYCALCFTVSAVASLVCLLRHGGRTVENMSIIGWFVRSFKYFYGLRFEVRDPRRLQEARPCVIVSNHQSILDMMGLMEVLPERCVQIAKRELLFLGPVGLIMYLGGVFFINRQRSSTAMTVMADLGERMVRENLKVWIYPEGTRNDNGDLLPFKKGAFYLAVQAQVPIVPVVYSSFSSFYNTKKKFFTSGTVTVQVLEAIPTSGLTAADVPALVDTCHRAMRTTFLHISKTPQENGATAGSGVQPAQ
As to the kind of experiment: LPAAT-β colorimetric assay (DTNB detection of released CoA). The format is biochemical. The following applies: Sf9 cell membrane overexpressing LPAAT-β; 18:1-CoA and sn-1-18:1 lysoPA; absorbance at 405 nm; read-out: LPAATβ Colorimetric Assay IC50. From the text: For the construction of Baculovirus expression vectors, the full-length human LPAAT-β cDNA was amplified by PCR from the DNA template pCE9.LPAAT-β (West et al., DNA Cell Biol. 16:691-701 (1997)) using the primers 5′-TGATATCCGAAGAAGATCTTATGGAGCTGTGGCCGTGTC-3′ (olpb1F) and 5′-CAGGCTCTAG ACTACTGGGC CGGCTGCAC-3′ (olpb1R). The ˜870 bp fragment generated was reamplified by PCR using the primers 5′ CCTACGTCG ACATGGAACAAAAATTGATATCCGAAGAAGATC-3′ (olpb2F) and 5′-CAGGCTCTAG ACTACTGGGC CGGCTGCAC-3′ (olpb1R). The ˜890 bp fragment generated was then cleaved with Sal I and Xba I for insertion into pFastBac™ HTc vector (Life Technologies, Gaithersberg, Md.) between the Sal I and Xba I sites for the generation of the plasmid pFB.LPAAT-β. This plasmid was then transformed into E. coli DH10Bac™ (Life Technologies, Gaithersberg, Md.) for the generation of recombinant Bacmid DNA for transfection into HighFive (Invitrogen, San Diego, Calif.) or SF9 insect cells for the production of recombinant Baculovirus stocks using the protocol described in the Bac-to-Bac® Baculovirus Expression System (Life Technologies, Gaithersberg, Md.), a eukaryotic expression system for generating recombinant baculovirus through site-specific transposition in E. coli. Viral stocks harvested from the transfected cells can then be used to infect fresh insect cells for the subsequent expression of LPAAT-β fusion protein with a poly-histidine tag and a myc-epitope near its N-terminus. The membrane fraction from these Sf9 cells would be the source of LPAAT enzyme.
For the preparation of membranes From Sf9 Cells, all steps are performed on ice or at 4° C. Sf9 cell pellets ([…]) were thawed and resuspended in 1-2 ml of buffer A (20 mM Hepes, pH 7.5, 1 mM DTT, 1 mM EDTA, 20% w/v glycerol, 1 mM Benzamidine, 1 μg/ml soybean trypsin inhibitor (SBTI), 1 μg/ml pepstatin A) w/o DTT but with 1 mM Pefabloc. The cells were lysed by sonication using a Branson Sonifier at output=2, duty cycle=2, 10 pulses each at 10 s. with the tip of small sonicator probe submerged but not touching the walls. DTT was then added to 1 mM from a 1M stock. The samples were centrifuged at 1500 rpm for 5 min. The low speed supernatant was saved and centrifuged (TLA 100.3 rotor, polycarbonate tubes, 2 ml/tube or 1.5 ml/tube minimum) at 100000×g for 1 hr. The high speed pellet was resuspend in Buffer A with a probe sonicator (10 pulses @ output #2 and duty cycle 20%) as a source of LPAAT enzyme.
LPAAT-β catalyzes the transfer of an acyl group from a donor such as acyl-CoA to LPA. The transfer of the acyl group from acyl-CoA to LPA leads to the release of free CoA, which can be reacted with the thiol reagent, 5,5′-dithiobis(2-nitrobenzoic acid) (DTNB). The reaction between DTNB and the free sulfhydryl group from CoA generates a yellow-colored product, 3-carboxylato-4-nitrothiophenolate (CNP), that absorbs at 413 nm. LPAAT-β derived from Sf9 cell membrane overexpressing LPAAT-β were resuspended in HEPES saline buffer (20 mM HEPES pH 7.5, 150 mM NaCl), 1 mg/ml BSA and 72 μl aliquots were distributed into 96-well microtiter plates. 8 μl of compound of interest at 200 μM dissolved in 100% DMSO was added into each well. 20 μl of 1 mM 18:1-CoA and 1 mM sn-1-18:1 lysoPA was then added to each well to initiate the reaction and allowed to run at room temperature for 25 min. 100 μl of 1 mM DTNB in 100% ethanol was then added to each well to quench the reaction and for color development. The absorbance at 405 nm, measured using a spectrophotometer plate reader, is proportional to the activity of LPAAT-β in the sample. This calorimetric assay was used for the high throughput screening of LPAAT inhibitors. […] Compounds that gave a reading of less than 0.06 arbitrary units (indicated by arrow on right margin) were selected for further study.
Broadly, the IC50 is the midpoint of a concentration-inhibition curve. `COC(=O)Nc1ccc(C)c(-c2nc3cc(C)ccc3o2)c1` [CT-32036, (4-Methyl-3-(5-methyl-benzooxazol-2-yl)-phenyl)-carbamic Acid Methyl Ester]: the 50% inhibitory concentration (IC50) turned out to be 1500 nM.
As for `CCC(=O)N(C)c1ccc(Cl)c(-c2nc3cc(C)ccc3o2)c1` [CT-32019, N-(4-Chloro-3-(5-methyl-benzooxazol-2-yl)-phenyl)-N-methyl-propionamide], the figure is 12000 nM; as for `CNC(=O)Nc1ccc(Cl)c(-c2nc3cc(C)ccc3o2)c1` [CT-32021, 1-(4-Chloro-3-(5-methyl-benzooxazol-2-yl)-phenyl)-3-methyl-urea], 4000 nM; as for `[N-]=[N+]=NCC(=O)Nc1ccc(Cl)c(-c2nc3cc(Cl)ccc3o2)c1` [CT-32289, 2-Azido-N-[4-chloro-3-(5-chloro-benzooxazol-2-yl)-phenyl]-acetamide], 175 nM.
As for `COC(=O)Nc1ccc(Cl)c(-c2nc3cc(C(F)(F)F)ccc3s2)c1` [CT-32073, (4-Chloro-3-(5-trifluoromethyl-benzothiazol-2-yl)-phenyl)-carbamic Acid Methyl Ester], the figure is 200 nM; as for `N#CCC(=O)Nc1ccc(Cl)c(-c2nc3cccnc3o2)c1` [CT-32271, N-(4-Chloro-3-oxazolo[5,4,b]pyridin-2-yl-phenyl)-2-cyano-acetamide], 190 nM; as for `C#CCOC(=O)Nc1ccc(C)c(-c2nc3cc(C(F)(F)F)ccc3s2)c1` [CT-32203, 4-Methyl-3-(5-trifluoromethyl-benzothiazol-2-yl)-phenyl-carbamic Acid Prop-2-ynyl Ester], 40 nM.
For `CCC(=O)Nc1ccc(Cl)c(-c2nc3cc(C(F)(F)F)ccc3s2)c1` [CT-32142, N-(4-Chloro-3-(5-trifluoromethyl-benzothiazol-2-yl)-phenyl)-propionamide] the value was 220 nM; for `COC(=O)Nc1ccc(Cl)c(-c2nc3ccccc3o2)c1` [CT-32009, (3-Benzooxazol-2-yl-4-chloro-phenyl)-carbamic Acid Methyl Ester], 500 nM.
Consider `COC(=O)Nc1ccc(Cl)c(-c2nc3cc(C)ccc3n2C)c1` [CT-32061, (4-Chloro-3-(1,5-dimethyl-1H-benzoimidazol-2-yl)-phenyl)-carbamic Acid Methyl Ester], for which the IC50 came to 10800 nM.
As for `C#CCOC(=O)Nc1ccc(Cl)c(-c2nc3ncccc3o2)c1` [CT-32259, (4-Chloro-3-oxazolo[4,5,b]pyridin-2-yl-phenyl)-carbamic Acid Prop-2-ynyl Ester], the figure is 800 nM.
As for `C#CCOC(=O)Nc1ccc(Cl)c(-c2nc3c(C)cccc3o2)c1` [CT-32079, (4-Chloro-3-(4-methyl-benzooxazol-2-yl)-phenyl)-carbamic acid Prop-2-ynyl Ester], the figure is 160 nM; as for `CC#CCOC(=O)Nc1ccc(Cl)c(-c2nc3cc(Cl)ccc3s2)c1` [CT-32262, (4-Chloro-3-(5-chloro-benzothiazol-2-yl)-phenyl)-carbamic Acid But-2-ynyl Ester], 25 nM; as for `C#CCOC(=O)Nc1ccc(Cl)c(-c2nc3ccccc3o2)c1` [CT-32154, (3-Benzooxazol-2-yl-4-chloro-phenyl)-carbamic Acid Prop-2-ynyl Ester], 50 nM.
On to `CCC(=O)Nc1ccc(F)c(-c2nc3cc(C)ccc3o2)c1` [CT-32011, N-(4-Fluoro-3-(5-methyl-benzooxazol-2-yl)-phenyl)-propionamide], for which the IC50 was determined as 15500 nM.
Regarding `C#CCOC(=O)Nc1ccc(Cl)c(-c2nc3cc(C(F)(F)F)ccc3s2)c1` [CT-32143, (4-Chloro-3-(5-trifluoromethyl-benzothiazol-2-yl)-phenyl)-carbamic Acid Prop-2-ynyl Ester], the IC50 came out at 15 nM.
Regarding `C#CCOC(=O)Nc1ccc(C)c(-c2nc3cccnc3o2)c1` [CT-32290, (4-Methyl-3-oxazolo[5,4,b]pyridin-2-yl-phenyl)-carbamic Acid Prop-2-ynyl Ester], the IC50 is 1200 nM.
For `C#CCOC(=O)Nc1ccc(Cl)c(-c2nc3cc(Cl)ccc3n2C)c1` [CT-32243, [4-Chloro-3-(5-chloro-1-methyl-1H-benzoimidazol-2-yl)-phenyl]-carbamic Acid Prop-2-ynyl Ester] the value was 60 nM.
For `CCC(=O)Nc1ccc(Cl)c(-c2nc3cc(Cl)ccc3o2)c1` [CT-32160, N-(4-Chloro-3-(5-chloro-benzooxazol-2-yl)-phenyl)-propionamide] the value was 350 nM; for `C#CCOC(=O)Nc1ccc(Cl)c(-c2nc3cc(C)ccc3o2)c1` [CT-32037, (4-Chloro-3-(5-methyl-benzooxazol-2-yl)-phenyl)-carbamic Acid Prop-2-ynyl Ester], 190 nM; for `C#CCCOC(=O)Nc1ccc(Cl)c(-c2nc3cc(Cl)ccc3s2)c1` [CT-32277, [4-Chloro-3-(5-chloro-benzothiazol-2-yl)-phenyl]-carbamic Acid But-3-ynyl Ester], 55 nM.
For `N#CCC(=O)Nc1ccc(Cl)c(-c2nc3cc(Cl)ccc3o2)c1` [CT-32214, N-[4-Chloro-3-(5-chloro-benzooxazol-2-yl)-phenyl]-2-cyano-acetamide] the value was 270 nM.
`C#CCCC(=O)Nc1ccc(Cl)c(-c2nc3cc(Cl)ccc3s2)c1` [CT-32278, Pent-4-ynoic acid [4-chloro-3-(5-chloro-benzothiazol-2-yl)-phenyl]-amide]: the IC50 came out at 40 nM.
As for `COC(=O)Nc1ccc(Cl)c(-c2nc3cc(Cl)ccc3o2)c1` [CT-32053, (4-Chloro-3-(5-chloro-benzooxazol-2-yl)-phenyl)-carbamic Acid Methyl Ester], the figure is 300 nM; as for `C#CCOC(=O)Nc1ccc(C)c(-c2nc3cc(Cl)ccc3s2)c1` [CT-32268, [3-(5-chloro-benzothiazol-2-yl)-4-methyl-phenyl]-carbamic Acid Prop-2-ynyl Ester], 150 nM; as for `N#CCC(=O)Nc1ccc(Cl)c(-c2nc3cccnc3s2)c1` [CT-32315, N-(4Chloro-3-thiazolo[5,4,b]pyridin-2-yl-phenyl)-2-cyano-acetamide], 110 nM.
As for `CCC(=O)Nc1ccc(Cl)c(-c2nc3ccccc3o2)c1` [CT-32008, N-(3-Benzooxazol-2-yl-4-chloro-phenyl)-propionamide], the figure is 900 nM.
For `C#CCOC(=O)Nc1ccc(Cl)c(-c2nc3cc(C(F)(F)F)ccc3o2)c1` [CT-32173, (4-Chloro-3-(5-trifluoromethyl-benzooxazol-2-yl)-phenyl)-carbamic Acid Prop-2-ynyl Ester] the value was 140 nM; for `N#CCC(=O)Nc1ccc(Cl)c(-c2nc3cc(Cl)ccc3s2)c1` [CT-32242, N-(4-Chloro-3-(5-chloro-benzothiazol-2-yl)-phenyl)-2-cyano-acetamide], 15 nM.
